Measured values taken from patent publication US20160184459A1, “CANCER CELL SPECIFIC IMAGING PROBES AND METHODS OF USE” (THE RESEARCH FOUNDATION FOR THE STATE UNIVERSITY OF NEW YORK, priority 2013, published 2016).
Like-named read-outs stand apart in the source and are kept apart here. One block for each compound: values may come before it. Residues, ends and D or L forms follow the SMILES beside them. *: point of attachment. Cbz = O=C(OCc1ccccc1)*

Assays:
[1] = system: BXPC3 cells; experiment: MTS cell viability assay with or without TSA; assay type: cell-based, human; settings: 20 μM, 72 hr, TSA 50 nM
Experimental: FIG. 25. Selective cytotoxicity by BKAc-5FCR. Human pancreatic BXPC3 cells were treated with DMSO (vehicle), BKAc-5FCR (20 μM), or 5FCR (20 μM) for 72 hr with or without TSA (50 nM) followed by MTS cell viability assay. Representative phase contrast images of cells treated with DMSO (vehicle) or BKAc-5FCR (20 μM) for 72 hr with or without TSA (50 nM) are shown.

[2] = system: HDAC and endogenous protease (cathepsin L) activity in BxPC3 and CFPac-1 cells; experiment: Live cell enzymatic assay with Boc-Lys(Ac)-AMC, release of AMC; assay type: cell-based; settings: for Activation of substrate Boc-Lys(Ac)-AMC: substrate 25 μM, 6 hr
Experimental: FIG. 5. A. HDAC assay using different substrates in BxPC3 cells (shGFP and shSki). Cells were incubated with Boc-Lys(Ac)-AMC or Ac-Arg-Gly-Lys(Ac)-AMC (25 μM) for 1 hr with DMSO (vehicle) or TSA (1 μM) as indicated, followed by cell lysis and trypsin treatment, and fluorescence measurements. Data represent mean values of triplicate measurements±standard deviation. RFU, relative fluorescent units. B. Similar experiment was done as in A but without cell lysis and trypsin treatment. Cells were incubated with the substrates for 2.5 hr.
FIG. 6. A. Release of AMC by combined HDAC and endogenous protease-dependent enzymatic reaction in BxPC3 and CFPac-1 cells (shGFP and shSki). Cells were incubated with substrate Boc-Lys(Ac)-AMC (25 μM) for 6 hr with DMSO (vehicle), TSA (1 μM), or Z-FY-CHO (10 μM) as indicated, followed by fluorescence measurements. Data represent mean values of triplicate measurements±standard deviation. RFU, relative fluorescent units. B. Time course of AMC release in BxPC3 cells (shGFP and shSki). Each cells were incubated with Boc-Lys(Ac)-AMC (25 μM) for 2.5, 6.0, and 23 hr with DMSO (vehicle) or TSA (1 μM) as indicated.
Tissue culture based standard HDAC assays were performed by commercially available fluorimetric HDAC assay kit (SensoLyte, AnaSpec) according to the manufacturer's instruction with modification of using 25 μM Boc-Lys(Ac)-AMC (Bachem) as substrate and measuring parameter (Ex/Em=355 nm/460 nm) for AMC. […] After 15 m incubation at room temperature, the fluorescent signal of AMC was measured by SpectraMax M5 microplate reader (Molecular Devices) at Ex/Em=355 nm/460 nm. Live cell lysyl endopeptidase assay was performed by applying the substrate 25 μM Boc-Lys-AMC (Bachem) [either with DMSO or 100 μM Z-FY-CHO (EMD)] to the overnight culture seeded from 6×10^4 cells in 100 μl medium in 96-well tissue culture plates, followed by 20 h incubation at 37° C. with 5% CO2 atmosphere, then the fluorescent signal of AMC was measured. Live cell enzymatic assay using Boc-Lys(Ac)-AMC was performed by applying the substrate 25 μM Boc-Lys(Ac)-AMC (either with DMSO, 1 μM TSA or 100 μM Z-FY-CHO) to the overnight culture seeded from 6×10^4 cells in 100 μl medium in 96-well tissue culture plates, followed by 20 h incubation at 37° C. with 5% CO2 atmosphere, then the fluorescent signal of AMC was measured. […]
Fluorescence measurement was done at λex=390 nm and λem=460 nm for AMC. […] Cells were then lysed and the lysates incubated with exogenously added excess trypsin to cleave only those lysine residues that are de-acetylated and activate fluorescence. […]

[3] = molecular target: T1, lysyl endopeptidase activity (CTSL) in live cells (Homo sapiens, UniProt P07711); experiment: Live cell lysyl endopeptidase assay with Boc-Lys-AMC; assay type: cell-based; settings: Z-FY-CHO 100 μM, substrate 25 μM, 20 h
T1 construct: endogenous in cells; host or cells: Panel of cultured lines: Caco-2, COGA-10, HCA-7, HT29, HCT116, CCD841-CoN, MiaPaca-2, BXPC-3, HepG2, HeLa (human) and Eph4 (mouse)
Experimental: FIG. 2. Comparative live cell lysyl endopeptidase activity of the same cell lines as in FIG. 1 using substrate Boc-Lys-AMC either with vehicle control DMSO or Z-FY-CHO (100 μM). Data represent mean values of triplicate measurements±s.d. RFU, relative fluorescent units.
Tissue culture based standard HDAC assays were performed by commercially available fluorimetric HDAC assay kit (SensoLyte, AnaSpec) according to the manufacturer's instruction with modification of using 25 μM Boc-Lys(Ac)-AMC (Bachem) as substrate and measuring parameter (Ex/Em=355 nm/460 nm) for AMC. Basically, HDAC substrate 25 μM Boc-Lys(Ac)-AMC [either with DMSO or 1 μM TSA (Sigma)] was applied to the overnight culture seeded from 6×10^4 cells in 100 μl medium in 96-well tissue culture plates, followed by 2 to 3 h incubation at 37° C. with 5% CO2 atmosphere. […] After 15 m incubation at room temperature, the fluorescent signal of AMC was measured by SpectraMax M5 microplate reader (Molecular Devices) at Ex/Em=355 nm/460 nm. Live cell lysyl endopeptidase assay was performed by applying the substrate 25 μM Boc-Lys-AMC (Bachem) [either with DMSO or 100 μM Z-FY-CHO (EMD)] to the overnight culture seeded from 6×10^4 cells in 100 μl medium in 96-well tissue culture plates, followed by 20 h incubation at 37° C. with 5% CO2 atmosphere, then the fluorescent signal of AMC was measured. […]

[4] = system: cells; experiment: 72 hr in vitro cytotoxicity with TSA; assay type: cell-based; settings: TSA 1 μM
From the text: The prodrugs that are synthesized may have some basal level of cytotoxicity before they are activated by HDAC3. One way to determine the IC50 values of the uncleaved forms of the prodrugs would be to use HDAC inhibitors both in vitro and in vivo. […] […] […] For example, among available HDAC inhibitors, SAHA (Vorinostat), a FDA approved pharmaceutical HDAC inhibitor (Bradner, J. E. et al. 2010), is known to inhibit all of these HDACs with much lower cytotoxicity than TSA. Thus, SAHA is an alternative HDAC inhibitor for the prodrug evaluation as well. By comparing the prodrug ICo values for cytotoxicity under conditions of HDAC inhibition with those values where HDACs are active we are able to provide data on the HDAC dependence of our new class of prodrugs.

[5] = system: BxPC3 cells (shSki); experiment: MTT cell viability assay, BxPC3 shSki; assay type: cell-based; settings: Homo sapiens, BXPC-3, 72 hr
Experimental: (§1) FIG. 24. Effect of the prodrug on cell viability of BxPC3 cells (shGFP and shSki). Cells were treated with the indicated dose of drugs (BKAc-5FCR or 5FCR) for 72 hr followed by MTT assay. Data represent mean values of triplicate measurements±standard deviation. IC50 values were derived from nonlinear curve fit of the dose response data using an outlier's exclusion, variable slope model (GraphPad Prism software). All values are means of at least two independent experiments.
(§2) The in vitro efficacy of the compounds in a series of BxPC3 and CFPac-1 derivatives with reduced Class I HDAC activity following Ski knockdown (shSki), HDAC3 knockdown and control (shGFP) was assessed. The growth inhibitory/viability effects of the compounds (IC50 value, the concentration resulting in 50% growth inhibition) on the various cell lines were determined by dose response curve analysis (GraphPad Prism software) of MTT [3-(4,5dimethylthiazol-2-yl)-2,5-diphenyl-tetrazolium bromide] cell viability assay. If the prodrugs are activated in an HDAC-dependent manner, the cells with reduced HDAC activity would be predicted to be more resistant to the prodrug treatment than control cells, while the effect of free parental drugs on both cells would be expected to be similar.

[6] = system: BxPC3 cells (shGFP); experiment: MTT cell viability assay, BxPC3 shGFP; assay type: cell-based; settings: Homo sapiens, BXPC-3, 72 hr
Experimental: as §1, §2

[7] = system: non-malignant Caco-2 cells; experiment: MTS cell viability assay, Caco-2; assay type: cell-based, human; settings: parental Puro, MTS, 3 d
Experimental: FIG. 13. Inhibition of cell viability by BKAc-Puro is presented in dose-response curve format for the same cell lines as in FIG. 8. The cell lines were treated with DMSO or the indicated doses of agent (4.22, 8.44, 16.9, 33.8, 67.5, or 135 μM) for 5 d followed by MTS assay. Data represent mean values of triplicate measurements±s.d. (n=3). IC50 values were fit by logistic regression.
FIG. 14. Inhibition of cell viability by parental Puro. The cell lines were treated with the indicated doses of Puro (0, 1.1, 2.1, 4.2, or 8.4 μM) for 3 d followed by MTS assay. Data represent mean values of triplicate measurements±s.d.
Cell number was determined by cell counting using improved Neubauer hemacytometer. Cell viability was calculated as the number of viable cells divided by the total number of cells using Trypan Blue Stain (Invitrogen) to distinguish non-viable cells. Data were obtained from duplicated samples with quadruplicate measurements. MTS based cell viability assay was performed using CellTiter 96 Aqueous Cell Proliferation Assay (Promega) according to the manufacturer's instruction. Either 1 μl of DMSO alone or variable concentrations of BKAc-Puro or Puro in DMSO were added to the cell lines seeded at 5×10^4 cells per well in 96-well tissue culture plates in 100 μl of the growth medium, followed by 3-5 d incubation at 37° C. with 5% CO2 atmosphere. Then 20 μl of the MTS reagent was added to each well. After additional 2-3 h incubation, the absorbance of the formazan at 490 nm was measured by the microplate reader. Percent cell viability was expressed relative to the wells containing cells treated with DMSO alone. Data were obtained from triplicate measurements. […] Determination of non-viable cells using PI staining was performed by adding 1 μg/ml of PI solution (Sigma) to the cell culture, prior to the examination under fluorescence microscopy (Axiovert 3, Carl Zeiss) through a×32 objective equipped with a digital imaging processor (Infinity 3, Lumenera).

[8] = single administration, cited from earlier work
[9] = system: Puro-incorporated proteins in HCT116, HT29, CCD841-CoN and Caco-2 cells; experiment: Immunoblotting of Puro-incorporated proteins in cell lysates; assay type: cell-based, human; settings: Puro 2.1 μM, 16 h, with or without TSA 0.5 μM
Experimental: (§3) FIG. 27. Levels of Puro-incorporated proteins in the cells were monitored by immunoblotting. Indicated cell lines were treated either with vehicle control DMSO or Boc-KAc-Puro (16.9 μM) in the presence or absence of TSA (0.5 μM) for 20 h, followed by preparation of cell lysates. The lower panel (anti-α-Tubulin) serves as a loading control.
as §3, with “28.” for “27.”, “Puro (2.1” for “Boc-KAc-Puro (16.9”, “16” for “20”, “lysates. […]” for “lysates.”
Cultured cells or tissue samples were sonicated in RIPA lysis buffer (1% NP-40, 0.1% SDS, 50 mM Tris-HCl pH 7.4, 150 mM NaCl, 0.5% sodium deoxycholate, 1 mM EDTA) supplemented with PMSF and protease inhibitor cocktail (Roche) on ice followed by clarification. Protein lysates were separated on sodium dodecyl sulfate-polyacrylamide gels and transferred onto nitrocellulose membranes (Whatman). The primary antibodies used were anti-puromycin (3RH11, KeraFAST) and anti-α-tubulin (Sigma-Aldrich). Proteins of interest were detected with anti-mouse secondary antibody by chemiluminescence (ECL Kit, GE Healthcare Life Sciences).

T1 sequence (P07711 114-288 limits assumed): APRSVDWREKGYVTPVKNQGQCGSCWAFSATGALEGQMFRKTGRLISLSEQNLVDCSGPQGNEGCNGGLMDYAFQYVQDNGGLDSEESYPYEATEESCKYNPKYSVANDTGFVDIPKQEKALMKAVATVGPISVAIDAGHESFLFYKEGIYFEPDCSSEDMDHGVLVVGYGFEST
T1 sequence (P07711 292-333 limits assumed): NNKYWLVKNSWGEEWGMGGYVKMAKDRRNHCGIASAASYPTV

SMILES: CC(=O)NCCCCC(NC(=O)OC(C)(C)C)C(=O)Nc1nc(=O)n([C@@H]2O[C@H](CO)[C@@H](O)[C@H]2O)cc1F (stereo partly drawn) [BKAc-5FCR, t-butyl (6-acetamido-1-((1-((2R,3R,4S,5R)-3,4-dihydroxy-5-(hydroxymethyl)tetrahydrofuran-2-yl)-5-fluoro-2-oxo-1,2-dihydropyrimidin-4-yl)amino)-1-oxohexan-2-yl) carbamate]
Cytotoxic effect in the presence of HDAC inhibitor TSA [1]: substantially compromised

SMILES: CC(=O)NCCCC[C@H](NC(=O)OC(C)(C)C)C(=O)Nc1ccc2c(C)cc(=O)oc2c1 [Boc-Lys(Ac)-AMC]
Time course of AMC release ([2]; BxPC3, 25 μM, over 20 hr): released linearly
Activation in live cells relative to total HDAC activity ([2]; BxPC3 live cells, 25 μM, 2.5 hr, without lysis and trypsin): approximately 50%

Release of AMC [3]: significantly blocked
SMILES: O=C[C@H](Cc1ccc(O)cc1)NC(=O)[C@H](Cc1ccccc1)NC(=O)OCc1ccccc1 [Z-FY-CHO] (Cbz-Phe-Tyr-aldehyde)
Activation of substrate Boc-Lys(Ac)-AMC ([2]; Z-FY-CHO 10 μM): completely abrogated

SMILES: CC(/C=C/C(=O)NO)=C\[C@@H](C)C(=O)c1ccc(N(C)C)cc1 [TSA, Trichostatin A]
Activation of substrate Boc-Lys(Ac)-AMC ([2]; TSA 1 μM): completely inhibited activation
Cytotoxicity [4]: cytotoxic effect

IC50 [5]: 1200 nM
IC50 [6]: 1300 nM
SMILES: Nc1nc(=O)n([C@@H]2O[C@H](CO)[C@@H](O)[C@H]2O)cc1F [5FCR, 5-fluorocytidine]

SMILES: COc1ccc(C[C@H](N)C(=O)N[C@H]2[C@@H](O)[C@H](n3cnc4c(N(C)C)ncnc43)O[C@@H]2CO)cc1 [Puro, puromycin]
Effect on cell viability [7]: effective
LD50 ([8]; intraperitoneally): 580 mg/kg
LD50 ([8]; intravenously): 335 mg/kg
LD50 ([8]; orally): 720 mg/kg
Puro incorporation between cell lines regardless of TSA treatment [9]: no difference
